Patent US20160160189A1, “Truncated Constructs of RIPK3 and Related Uses” (ST. JUDE CHILDREN'S RESEARCH HOSPITAL, priority 2013, published 2016)
Peptide text beside a SMILES is read from it. * marks the point of attachment. Cbz = O=C(OCc1ccccc1)*; CH2F = FC*

Tests used:
[1] = test system: NIH-3T3 cells stably expressing RIPK3-1xFv; assay: TNF-induced necroptosis, IncuCyte imaging; assay type: cell-based, murine; conditions: recombinant TNF with zVAD; Nec1 30 μM, TNFR1-Fc 200 ng/ml
Description: Expression of RIPK3-1xFv sensitized these cells to necroptosis induced by the combination of TNF and a caspase inhibitor (zVAD) in a manner analogous to that observed in Jax cells, a murine fibroblast line that expresses endogenous RIPK3. See, FIG. 13C. […]
(§1) Resulting images were analyzed using the software package supplied with the IncuCyte imager, which allows precise analysis of the number of Sytox Green or Yoyo-3 positive cells present in each image. For each experiment, a minimum of three separate wells were treated with each experimental condition, and a minimum of 4 image fields were assessed per well. Percent cell death was calculated by treating a minimum of three distinct wells in each experiment with 100 nM of the cell permeable fluorescent dye Syto Green (S7559), which allows quantification of the total number of cells present in each field. […]

[2] = test system: NIH-3T3 cells stably expressing DD-RIPK3; assay: Cell death of DD-RIPK3 cells, IncuCyte bioimager; assay type: cell-based, murine; conditions: 1 μM Shield drug
Text: Chimeric proteins composed of RIPK3 fused to the destabilization domain (DD)(31a) were created via recombinant PCR, to produce a fragment composed of an N-terminal FLAG tag followed by the destabilization domain, then full-length murine RIPK3 or RIPK3^K51A. These constructs were cloned into the pRRL lentiviral vector downstream of an MND promoter, and upstream of a T2A-GFP-T2A-Puromycin resistance cassette. Thus, cells transduced with these vectors produce FLAG-DD-RIPK3, GFP, and the puromycin resistance marker as separate proteins from a single mRNA, and both DD-RIPK3 and GFP carry a C terminal 2A epitope. These constructs were expressed in NIH-3T3 cells via standard helper12 dependent lentiviral transduction, and resulting cells were selected in 2 μg/ml puromycin. […]
as §1

[3] = test system: EμMyc+p53^ΔPP/wt tumor-bearing animals; assay type: in vivo, mice; conditions: 200 μg zVAD-fmk with 10 μg anti-CD95, intravenously once/day for 5 days
Description: EμMyc+p53^ΔPP/wt tumor-bearing animals were injected intravenously once/day for 5 days starting at P35 with 10 μg of the antagonist anti-CD95 Jot antibody and 200 μg of zVAD-fmk or vehicle control. Tumor size was monitored by ultrasound of the thymus, where volume was calculated from 3D reconstructions of the scanned tumors.
In a pilot experiment, mice with detectable tumors at 5 weeks (determined by ultrasound, and characteristic of this lymphoma) were given a short course (5 days) of agonistic anti-CD95 (Jo2) and zVAD-fmk (FIG. 11). […] Controls using zVAD-fmk alone are also included.

Which “effect on TNF-induced necroptosis” value [1] does the source give for `CN1C(=O)C(Cc2c[nH]c3ccccc23)NC1=S` (stereo not shown) [necrostatin-1, Necrostatin-1] here?
The value was “blocks”.

And the “effect of Nec1 on cell death after RIPK1 siRNA-mediated knockdown” value ([2]; 30 μM Nec1, RIPK1 siRNA)?
Its value is “eliminated”.

And the “effect on cell death triggered by RIPK3 accumulation” value ([2]; no exogenous TNF, TNFR-Fc 200 ng/ml, Nec1 30 μM)?
The value was “decreased cell death”.

`COC(=O)C[C@H](NC(=O)[C@H](C)NC(=O)[C@@H](NC(=O)OCc1ccccc1)C(C)C)C(=O)CF` [zVAD] (Cbz-Val-Ala-Asp(OMe)-CH2F) was tested. Which “protection from the lethal effects of anti-CD95 in vivo” value [3] did it give?
Its value is “completely protected”.
